ChEMBL document CHEMBL4321865, “Discovery of Novel Inhibitors of LpxC Displaying Potent in Vitro Activity against Gram-Negative Bacteria” (J Med Chem, 2020)
≈ marks a conversion by molar mass, not a printed value.

Columns and labels:
Klebsiella pneumoniae = assay: microbe, parasite or virus in culture; details: T 6474
Description: Antibacterial activity against multi-drug resistant Klebsiella pneumoniae T 6474 by broth microdilution method

Pseudomonas aeruginosa [1] = assay: microbe, parasite or virus in culture; details: ATCC 27853
Description: Antimicrobial activity against Pseudomonas aeruginosa ATCC 27853 by broth microdilution method

Escherichia coli [2] = assay: microbe, parasite or virus in culture; details: ATCC 25922
Description: Antibacterial activity against wild-type Escherichia coli ATCC 25922 by broth microdilution method

[3] = tested on: T1, UDP-3-O-acyl-N-acetylglucosamine deacetylase (Escherichia coli K-12), P0A725 [C125S]
T1 sequence (whole entry): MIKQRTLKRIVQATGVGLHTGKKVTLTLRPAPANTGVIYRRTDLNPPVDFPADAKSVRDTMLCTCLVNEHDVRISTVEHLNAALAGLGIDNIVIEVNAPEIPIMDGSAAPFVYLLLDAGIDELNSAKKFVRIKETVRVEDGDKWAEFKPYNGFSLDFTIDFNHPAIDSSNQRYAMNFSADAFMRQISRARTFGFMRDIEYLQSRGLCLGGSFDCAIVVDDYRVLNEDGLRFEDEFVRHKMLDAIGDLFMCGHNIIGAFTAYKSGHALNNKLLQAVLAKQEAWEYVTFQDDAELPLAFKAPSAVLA

physchem [4] = details: DMSO, pH 7
Description: Solubility of the compound in DMSO at pH 7 incubated for 24 hrs by LC-UV method

Pseudomonas aeruginosa [5] = assay: Antimicrobial activity against Pseudomonas aeruginosa PA2616 harboring delta mexAB-OprM mutant by broth microdilution method; type: functional
[6] = tested on: T2, UDP-3-O-acyl-N-acetylglucosamine deacetylase (Pseudomonas aeruginosa (strain ATCC 15692 / PAO1 / 1C / PRS 101 / LMG12228)), P47205 [C40S]
T2 sequence (whole entry): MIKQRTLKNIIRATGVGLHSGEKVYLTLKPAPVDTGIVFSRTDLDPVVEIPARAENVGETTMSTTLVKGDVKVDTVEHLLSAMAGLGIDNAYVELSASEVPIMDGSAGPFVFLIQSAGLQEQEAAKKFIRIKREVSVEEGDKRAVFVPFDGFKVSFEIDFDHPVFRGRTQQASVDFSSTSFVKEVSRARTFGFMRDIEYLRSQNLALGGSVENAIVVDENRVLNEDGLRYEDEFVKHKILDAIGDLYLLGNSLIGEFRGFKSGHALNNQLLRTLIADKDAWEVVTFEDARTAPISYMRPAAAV

Pseudomonas aeruginosa [7] = assay: microbe, parasite or virus in culture; details: PAO1
Description: Antimicrobial activity against wild-type Pseudomonas aeruginosa PAO1 by broth microdilution method

physchem [8] = details: DMSO, pH 9
Description: Solubility of the compound in DMSO at pH 9 incubated for 24 hrs by LC-UV method

physchem [9] = details: n-octanol/phosphate buffered saline, pH 7.4
Description: n-Octanol/phosphate buffered saline partition coefficient, log D of the compound at pH 7.4 by LC-UV method

[10] = Cmax in NMRI/ICR CD-1 mouse at 50 mg/kg, sc by LC-MS/MS analysis; type: ADME, organism-based; design: dose 50 mg/kg, route subcutaneous; details: in vivo
[11] = AUC (0 to 24 hrs) in NMRI/ICR CD-1 mouse at 150 mg/kg, sc by LC-MS/MS analysis; type: ADME, organism-based; design: dose 150 mg/kg, time < 24 hr, route subcutaneous; details: in vivo
physchem [12] = details: DMSO, pH 4
Description: Solubility of the compound in DMSO at pH 4 incubated for 24 hrs by LC-UV method

Mus musculus [13] = assay: Apparent unbound clearance in NMRI/ICR CD-1 mouse at 150 mg/kg, sc by LC-MS/MS analysis; type: ADME, organism-based; details: in vivo
Escherichia coli [14] = assay: Antibacterial activity against Escherichia coli infected in cyclophosphamide-induced NMRI/ICR CD-1 mouse model of neutropenic thigh infection assessed as reduction in thigh bacterial load at 150 mg/kg, sc measured after 22 hrs relative to control; type: functional
[15] = Apparent clearance in NMRI/ICR CD-1 mouse at 150 mg/kg, sc by LC-MS/MS analysis; type: ADME, organism-based; details: in vivo
[16] = Tmax in NMRI/ICR CD-1 mouse at 150 mg/kg, sc by LC-MS/MS analysis; type: ADME, organism-based; details: in vivo
Escherichia coli [17] = assay: Antibacterial activity against Escherichia coli infected in cyclophosphamide-induced NMRI/ICR CD-1 mouse model of neutropenic thigh infection assessed as reduction in thigh bacterial load at 50 mg/kg, sc measured after 22 hrs relative to control; type: functional
[18] = mouse, plasma, 1 µM
Description: Protein binding in mouse plasma assessed as fraction unbound at 1 uM by equilibrium dialysis method

[19] = Free AUC (0 to 24 hrs) in NMRI/ICR CD-1 mouse at 150 mg/kg, sc by LC-MS/MS analysis; type: ADME, organism-based; details: in vivo
in vivo = details: NMRI/ICR CD-1, mouse, sc, 50 mg/kg
[20] = mouse, in vivo, sc, 50 mg/kg
[21] = Apparent clearance in NMRI/ICR CD-1 mouse at 50 mg/kg, sc by LC-MS/MS analysis; type: ADME, organism-based; details: in vivo
[22] = Tmax in NMRI/ICR CD-1 mouse at 50 mg/kg, sc by LC-MS/MS analysis; type: ADME, organism-based; details: in vivo
Mus musculus [23] = assay: Apparent unbound clearance in NMRI/ICR CD-1 mouse at 50 mg/kg, sc by LC-MS/MS analysis; type: ADME, organism-based; details: in vivo

Compound | MIC (Klebsiella pneumoniae) [µg/mL] | MIC (Pseudomonas aeruginosa [1]) [µg/mL] | MIC (Escherichia coli [2]) [µg/mL] | ΔTm [3] [°C] | solubility at 24 h (physchem [4]) [µg/mL] | MIC (Pseudomonas aeruginosa [5]) [µg/mL] | ΔTm [6] [°C] | MIC (Pseudomonas aeruginosa [7]) [µg/mL] | solubility at 24 h (physchem [8]) [µg/mL] | logD (physchem [9]) | solubility at 24 h (physchem [12]) [µg/mL] | further results
COc1ccc(-c2cc3n(c2)C(=O)N(CC[C@](C)(C(=O)NO)S(C)(=O)=O)C3)c(F)c1 | 0.25 (≈ 0.569 µM) | 1 (≈ 2.28 µM) | 0.12 (≈ 0.273 µM) | 8.1 | 37 (≈ 84.2 µM) | 0.12 (≈ 0.273 µM) | 11.5 | 0.5 (≈ 1.14 µM) | 302 (≈ 687 µM) | 1.8 |  | 
C[C@@](CCN1Cc2cc(C#CC#CC3(N)CC3)cn2C1=O)(C(=O)NO)S(C)(=O)=O.Cl | 0.25 | 0.5 | 0.25 | 10 | 418 |  | 11.6 | 0.5 | 536 |  | 571 | Cmax [10]: 8600 ng/mL; AUC(0-t) at 24 h [11]: 14900 ng·h/mL; CLu/F (Mus musculus [13]): 716 mL/min/kg; fold change (FC) (Escherichia coli [14]): 1.8; CL/F [15]: 55.9 mL/min/kg; Tmax [16]: 30 min; fold change (FC) (Escherichia coli [17]): 2.8; Fu [18]: 0.078%; fAUC [19]: 1160 ng·h/mL
C[C@@](CCN1Cc2cc(C#CC#C[C@H]3C[C@@H]3CO)cn2C1=O)(C(=O)NO)S(C)(=O)=O | 0.25 (≈ 0.577 µM) | 0.25 (≈ 0.577 µM) | 0.12 (≈ 0.277 µM) | 11.2 |  |  | 13.2 | 0.5 (≈ 1.15 µM) |  |  | 600 (≈ 1380 µM) | Cmax [10]: 22600 ng/mL; AUC(0-t) at 24 h (in vivo): 41000 ng·h/mL; fAUC [20]: 370 ng·h/mL; CL/F [21]: 20.2 mL/min/kg; Tmax [22]: 30 min; fold change (FC) (Escherichia coli [14]): 0.8; CLu/F (Mus musculus [23]): 2300 mL/min/kg; fold change (FC) (Escherichia coli [17]): 1.8; Fu [18]: 0.009%
COc1ccc(-c2cnc3c(c2)CN(CCC(C)(C(=O)NO)S(C)(=O)=O)C3=O)c(F)c1 (racemic) | > 32 | 32 (≈ 70.9 µM) | 32 (≈ 70.9 µM) | 5.6 |  | 16 (≈ 35.4 µM) | 7 | > 32 |  |  |  | 
COc1ccc(-c2ccc3c(c2)oc(=O)n3CC[C@](C)(C(=O)NO)S(C)(=O)=O)c(F)c1 | 4 (≈ 8.84 µM) | 8 (≈ 17.7 µM) | 0.5 (≈ 1.11 µM) | 8.2 | 7 (≈ 15.5 µM) | ≤ 0.06 | 11 | 4 (≈ 8.84 µM) | 66 (≈ 146 µM) | 2.2 |  | 
C[C@@](CCN1Cc2cc(C#CC#CC3(N)CC3)sc2C1=O)(C(=O)NO)S(C)(=O)=O.Cl | 0.5 | 1 | 0.25 | 10 | 207 |  | 12.5 | 1 | > 740 | 1 | > 740 | 
C[C@@](CCN1Cc2cc(C#CC#CCOC(=O)N3CCC(O)CC3)cn2C1=O)(C(=O)NO)S(C)(=O)=O | 1 (≈ 1.92 µM) | 2 (≈ 3.84 µM) | 0.5 (≈ 0.96 µM) | 9.4 | 785 (≈ 1510 µM) |  | 12.9 | 2 (≈ 3.84 µM) | > 880 | 0.9 | 641 (≈ 1230 µM) | 
C[C@@](CCN1Cc2cc(C#Cc3ccc(CNS(C)(=O)=O)cc3)cn2C1=O)(C(=O)NO)S(C)(=O)=O | 0.5 (≈ 0.957 µM) | 1 (≈ 1.91 µM) | 0.25 (≈ 0.478 µM) | 11.2 | 3 (≈ 5.74 µM) |  | 13.2 | 1 (≈ 1.91 µM) | 56 (≈ 107 µM) | 1 | 1 (≈ 1.91 µM) | 
